Assay results: ChEMBL document CHEMBL3886833, “Therapeutic prostaglandin receptor agonists” (2016)

Assays:
[1] = target: T1, Prostaglandin E2 receptor EP2 subtype (Homo sapiens, UniProt P43116); test: cAMP Assay: A 384-well drug plate was prepared to contain test compounds, PGE2 and cAMP in 16 serial dilutions in triplicate, using a Biomek station. HEK-EBNA cells expressing a target PG receptor subtype (EP2 or EP4) were suspended in a stimulation buffer (HBSS, 0.1% BSA, 0.5 mM IBMX and 5 mM HEPES, pH 7.4) in a density of 10^4 cells/5 μl. The reaction was initiated by mixing 5 μL drug dilutions with 5 μl of HEK-EBNA cells in a well, carried out for 30 min at room temperature, and followed by the addition of 5 μl anti-cAMP acceptor beads in the control buffer with Tween-20 (25 mM NaCl, 0.03% Tween-20, 5 mM HEPES, pH7.4). After 30 min in the dark at room temperature, the mixtures were incubated with 15 μl biotinylated-cAMP/strpavidin donor beads in Lysis/Detection buffer (0.1% BSA, 0.3% Tween-20 and 5 mM HEPES, pH7.4) for 45 min at the room temperature. Fluorescence changes were read using a Fusion-alpha HT microplate reader.; format: functional, cell-based, 104
[2] = target: T1, Prostaglandin E2 receptor EP2 subtype; test: Radioligand Binding Assay: The cell homogenate was centrifuged at 19000 r.p.m. for 20 min at 4° C. using a Beckman Ti-60 rotor. The resultant pellet was resuspended in TME buffer to give a final 1 mg/ml protein concentration, as determined by Biorad assay. Radioligand binding competition assays vs. [3H-]17-phenyl PGF2a , (5 nM) were performed in a 100 μl volume for 60 min. Binding reactions were started by adding plasma membrane fraction. The reaction was terminated by the addition of 4 ml ice-cold TRIS-HCl buffer and rapid filtration through glass fiber GF/B filters using a Brandel cell harvester. The filters were washed 3 times with ice-cold buffer and oven dried for one hour. [3H-] PGE2 (specific activity 180 Ci mmol) was used as the radioligand for EP receptors. [3H] 17-phenyl PGF2a, was employed for FP receptor binding studies. Binding studies employing EP1, EP2, EP4 and FP receptors were performed in duplicate in at least three separate experiments. A 200 μl assay volume was used. Incubations w; format: cell-free
Thromboxane A2 receptor = target: T2, Thromboxane A2 receptor (Homo sapiens, UniProt P21731); test: FLIPR Assay: Calciium Signal Studies of the Flipr. Cells were seeded at a density of 5×10^4 cells per well in Biocoati® Poly-D-lysine-coated black-wall, clear-bottom 96-well plates (Becton-Dickinson) and allowed to attach overnight in an incubator at 37° C. Cells were then washed two times with HBSS-HEPES buffer (Hanks Balanced Salt Solution without bicarbonate and phenol red, 20 mM HEPES, pH 7.4) using a Denley Cellwash plate washer (Labsystems). After 45 minutes of dye-loading in the dark, using the calcium-sensitive dye Fluo-4 AM at a final concentration of 2 μM, plates were washed four times with HBSS-HEPES buffer to remove excess dye leaving 100 μl in each well. Plates were re-equilibrated to 37° C. for a few minutes. Cells were excited with an Argon laser at 488 nm, and emission was measured through a 510-570 nm bandwidth emission filter (FLIPR, Molecular Devices, Sunnyvale, Calif.). Drug solution was added in a 50 μl volume to each well to give the desired final concentration.; format: functional
T2 sequence (P21731 whole entry): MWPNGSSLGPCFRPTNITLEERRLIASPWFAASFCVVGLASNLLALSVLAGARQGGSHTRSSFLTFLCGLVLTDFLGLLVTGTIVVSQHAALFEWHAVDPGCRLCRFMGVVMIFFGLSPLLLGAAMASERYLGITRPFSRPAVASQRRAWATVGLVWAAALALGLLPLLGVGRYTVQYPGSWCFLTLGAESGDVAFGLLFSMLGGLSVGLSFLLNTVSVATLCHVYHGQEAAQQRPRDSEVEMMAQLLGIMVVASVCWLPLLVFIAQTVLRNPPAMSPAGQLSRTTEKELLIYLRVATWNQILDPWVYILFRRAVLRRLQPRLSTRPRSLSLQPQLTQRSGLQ

T1 sequence (P43116 whole entry): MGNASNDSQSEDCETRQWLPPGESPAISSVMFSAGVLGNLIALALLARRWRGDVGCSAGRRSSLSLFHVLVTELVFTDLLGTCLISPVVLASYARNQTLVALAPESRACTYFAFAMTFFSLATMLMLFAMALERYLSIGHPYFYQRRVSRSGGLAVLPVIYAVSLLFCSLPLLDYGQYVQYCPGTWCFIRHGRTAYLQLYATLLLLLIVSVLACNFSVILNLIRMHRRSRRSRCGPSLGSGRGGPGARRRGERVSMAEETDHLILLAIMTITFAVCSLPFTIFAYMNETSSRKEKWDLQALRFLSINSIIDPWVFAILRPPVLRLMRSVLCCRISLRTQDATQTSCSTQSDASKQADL

With `O=C(O)c1ccc(CC[C@H]2C(=O)CC[C@@H]2/C=C/C(O)Cc2cccc(Br)c2)cc1` (single isomer, unassigned) the EC50 [1] was 8 nM, the Ki [2] was 1170 nM and the EC50 (Thromboxane A2 receptor) was 100 nM.
